Laboratory results reported in patent US7083779B2 (Council of Scientific and Industrial Research, priority 2003, dated 2006).

Assays:
P. falciparum = conditions: cited from earlier work

## CC(=O)O[C@@H]1C[C@H]2C(C)(C)C(=O)CC[C@]2(C)[C@H]2CC[C@@]3(C)[C@H](c4ccoc4)OC(=O)[C@H]4O[C@]43[C@@]21C [dihydrogedunin]
P. falciparum
  LC50 against P. falciparum: 0.72 to 1.74 µg/mL

## CC(=O)O[C@@H]1C[C@H]2C(C)(C)C(=O)C=C[C@]2(C)[C@H]2CC[C@@]3(C)[C@H](c4ccoc4)C(=O)[C@H]4O[C@]43[C@@]21C [nimbinin]
P. falciparum
  LC50 against P. falciparum: 0.72 to 1.74 µg/mL

## [H]/N=C(\N/C(=N/[H])NCCCCCCNC(=N)NC(=N)Nc1ccc(Cl)cc1)Nc1ccc(Cl)cc1 [Chlorhexidine]
Cultured fibroblasts
  Reversibility of effect on cultured fibroblasts (cell viability and protein quantification): damage the cells irreversibly
Cultured fibroblasts; 0.001 %
  Cytotoxicity (cell viability): cytotoxic even at 0.001%
